Calls of active or inactive are those of the source. The rule behind the calls is not given here.
How the values were obtained:
Mus musculus [1] = test: In vivo inhibition of Keap1/Nrf2 protein-protein interaction in APAP-induced male C57BL/6 mouse model of acute liver injury administered intraperitoneally and measured after 12 hrs by co-immunoprecipitation analysis; assay type: functional, organism-based; conditions: dose 12.5-25 mg/kg, route ip
Mus musculus [2] = test: Anti-inflammatory activity in APAP-induced C57BL/6 mouse model of acute liver injury assessed as reduction in TNFalpha level in serum at 12.5 to 25 mg/kg, ip measured after 12 hrs by ELISA; assay type: functional, organism-based; conditions: dose 12.5-25 mg/kg
[3] = Tmax in Sprague-Dawley rat at 1 mg/kg, iv; assay type: ADME, organism-based; conditions: in vivo
[4] = biological target: T1, Nuclear factor erythroid 2-related factor 2 (Mus musculus) (UniProt Q60795); test: Activation of Nrf2 in LPS-stimulated mouse AML12 cells assessed as upregulation of HO-1 mRNA expression by measuring fold change at 10 uM incubated for 16 hrs relative to sulforaphane; assay type: cell-based; conditions: filed as activator
T1 sequence (whole entry): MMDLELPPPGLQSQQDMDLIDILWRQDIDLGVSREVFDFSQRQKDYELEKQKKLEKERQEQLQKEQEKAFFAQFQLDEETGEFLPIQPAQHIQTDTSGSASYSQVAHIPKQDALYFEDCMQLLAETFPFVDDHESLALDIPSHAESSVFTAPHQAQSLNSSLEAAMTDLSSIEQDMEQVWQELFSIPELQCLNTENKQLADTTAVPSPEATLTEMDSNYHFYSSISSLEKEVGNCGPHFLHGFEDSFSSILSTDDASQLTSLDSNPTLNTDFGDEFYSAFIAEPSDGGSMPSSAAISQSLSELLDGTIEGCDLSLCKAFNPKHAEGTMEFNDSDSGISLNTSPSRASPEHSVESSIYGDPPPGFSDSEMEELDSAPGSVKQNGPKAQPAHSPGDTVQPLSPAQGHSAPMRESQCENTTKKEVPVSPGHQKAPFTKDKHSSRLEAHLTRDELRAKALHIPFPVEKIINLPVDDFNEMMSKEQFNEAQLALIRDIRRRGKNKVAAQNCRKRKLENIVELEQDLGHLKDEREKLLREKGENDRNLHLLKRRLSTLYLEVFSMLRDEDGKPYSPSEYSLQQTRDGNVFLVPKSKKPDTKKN

Mus musculus [5] = test: In vivo induction of Nrf2 nuclear translocation in APAP-induced male C57BL/6 mouse model of acute liver injury assessed as increase in nuclear Nrf2 level at 12.5 to 25 mg/kg, ip measured after 12 hrs by Western blot analysis; assay type: functional, organism-based; conditions: dose 12.5-25 mg/kg
Mus musculus [6] = test: Anti-inflammatory activity against APAP-induced male C57BL/6 mouse model of acute liver injury assessed as restoration of HO-1 protein level in liver at 12.5 to 25 mg/kg, ip measured after 12 hrs by Western blot analysis; assay type: functional, organism-based; conditions: dose 12.5-25 mg/kg
[7] = Tmax in Sprague-Dawley rat at 10 mg/kg, po; assay type: ADME, organism-based; conditions: in vivo
[8] = Toxicity in C57BL/6J mouse assessed as histopathological change in respiratory tissue at 25 mg/kg, ip by H and E staining based analysis; assay type: organism-based; conditions: in vivo
Mus musculus [9] = test: Anti-inflammatory activity in APAP-induced C57BL/6 mouse model of acute liver injury assessed as reduction in macrophage aggregation in liver at 12.5 to 25 mg/kg, ip measured after 12 hrs by F4/80 staining based analysis; assay type: functional, organism-based; conditions: dose 12.5-25 mg/kg
Mus musculus [10] = test: Anti-inflammatory activity in APAP-induced Nrf2 knockout male C57BL/6 mouse model of acute liver injury assessed as increase in F4/80 positive cells in liver at 25 mg/kg, ip preadministered with compound followed by APAP induction and measured after 12 hrs by staining based analysis; assay type: functional, organism-based
[11] = Cmax in Sprague-Dawley rat at 10 mg/kg, po; assay type: ADME, organism-based; conditions: in vivo
[12] = Cmax in Sprague-Dawley rat at 1 mg/kg, iv; assay type: ADME, organism-based; conditions: in vivo
Mus musculus [13] = test: Anti-inflammatory activity in APAP-induced C57BL/6 mouse model of acute liver injury assessed as reduction in IL-6 level in serum at 12.5 to 25 mg/kg, ip measured after 12 hrs by ELISA; assay type: functional, organism-based; conditions: dose 12.5-25 mg/kg
Mus musculus [14] = test: Anti-inflammatory activity in APAP-induced C57BL/6 mouse model of acute liver injury assessed as reduction in TNFalpha mRNA level in liver at 12.5 to 25 mg/kg, ip measured after 12 hrs by ELISA; assay type: functional, organism-based; conditions: dose 12.5-25 mg/kg
[15] = biological target: T1, Nuclear factor erythroid 2-related factor 2 (Mus musculus); test: Activation of Nrf2 in LPS-stimulated mouse AML12 cells assessed as upregulation of Nrf2 protein level incubated for 16 hrs by Western blot analysis; assay type: cell-based; conditions: filed as activator, dose 0.5-10 µM
[16] = biological target: T1, Nuclear factor erythroid 2-related factor 2 (Mus musculus); test: Activation of Nrf2 in LPS-stimulated mouse AML12 cells assessed as upregulation of Akr1c1 mRNA expression by measuring fold change at 10 uM incubated for 16 hrs relative to sulforaphane; assay type: cell-based; conditions: filed as activator
Mus musculus [17] = test: Hepatoprotective activity in APAP-induced male C57BL/6 mouse model of acute liver injury assessed as reduction in AST level in liver at 12.5 to 25 mg/kg, ip measured after 12 hrs; assay type: functional, organism-based; conditions: dose 12.5-25 mg/kg
[18] = Drug concentration in liver of APAP-induced acute liver injury male C57BL/6 mouse model at 25 mg/kg, ip pre-administered with compound for 1 hr followed by APAP induction and measured after 12 hrs by Mass spectrometric analysis; assay type: ADME, organism-based; conditions: read-out: Ct
[19] = biological target: T1, Nuclear factor erythroid 2-related factor 2 (Mus musculus); test: Activation of Nrf2 in LPS-stimulated mouse AML12 cells assessed as upregulation of GCLM mRNA expression incubated for 16 hrs by RT-qPCR analysis; assay type: cell-based; conditions: filed as activator, dose 0.5-10 µM
[20] = Elimination half life in Sprague-Dawley rat at 1 mg/kg, iv; assay type: ADME, organism-based; conditions: in vivo, read-out: beta t1/2 (converted)
[21] = Drug concentration in plasma of APAP-induced acute liver injury male C57BL/6 mouse model at 12.5 mg/kg, ip pre-administered with compound for 1 hr followed by APAP induction and measured after 12 hrs by Mass spectrometric analysis; assay type: ADME, organism-based
[22] = Toxicity in C57BL/6J mouse assessed as histopathological change in hepatic tissue at 25 mg/kg, ip by H and E staining based analysis; assay type: organism-based; conditions: in vivo
Mus musculus [23] = test: Hepatoprotective activity in APAP-induced male C57BL/6 mouse model of acute liver injury assessed as attenuation of nitric oxide (NO) level in liver at 12.5 to 25 mg/kg, ip measured after 12 hrs; assay type: functional, organism-based; conditions: dose 12.5-25 mg/kg
Mus musculus [24] = test: Hepatoprotective activity in APAP-induced Nrf2 knockout male C57BL/6 mouse model of acute liver injury assessed as effect on AST level in liver at 25 mg/kg, ip preadministered with compound followed by APAP induction and measured after 12 hrs; assay type: functional, organism-based

COc1ccc(-c2cc(=O)c3ccc(NS(=O)(=O)c4ccc(F)cc4)cc3o2)cc1
inhibition (Mus musculus [1]): Dose-dependent-effect | Activity (Mus musculus [2]): Active | Tmax [3]: 0.17 h | fold change (FC) [4]: 3.4 | Activity (Mus musculus [5]): Active | Activity (Mus musculus [6]): Active | Tmax [7]: 1.5 h | Activity [8]: Non-toxic | Activity (Mus musculus [9]): Active | Activity (Mus musculus [10]): inactive | Cmax [11]: 1300 ng/mL | Cmax [12]: 1050 ng/mL | Activity (Mus musculus [13]): Active | Activity (Mus musculus [14]): Active | Activity [15]: Dose-dependent-effect | fold change (FC) [16]: 1.8 | Activity (Mus musculus [17]): Active | concentration at 13 h [18]: 485 ng/g | Activity [19]: Dose-dependent-effect | half-life [20]: 5.45 h | concentration at 13 h [21]: 50 ng/mL | Activity [22]: Non-toxic | Activity (Mus musculus [23]): Active | Activity (Mus musculus [24]): No effect
